Laboratory results: ChEMBL document CHEMBL5226321, “Ivermectin: A Promising Therapeutic for Fighting Malaria. Current Status and Perspective” (J Med Chem, 2021)

Columns and labels:
Culex pipiens = assay: Insecticidal in Culex pipiens larvae measured after 48 hrs; type: functional
Aedes aegypti [1] = assay: Insecticidal in Aedes aegypti larvae measured after 48 hrs; type: functional
Anopheles sp. [2] = assay: Insecticidal in Anopheles sp. assessed as mortality rate fed with blood of compound treated dog at 10 to 2500 microg/kg observed after 48 hrs relative to control; type: functional, organism-based; details: dose 10-2500 µg/kg
Anopheles stephensi [3] = assay: Insecticidal in Anopheles stephensi assessed as lethal concentration membrane-fed with compound treated blood; type: functional, organism-based
Aedes aegypti [4] = assay: Insecticidal in Aedes aegypti assessed as mortality rate membrane-fed with compound treated human blood at 10 to 100 microg/mL observed within 7 days relative to control; type: functional, organism-based; details: dose 10-100 µg/ml, time 7.0 day
Aedes albopictus = assay: Insecticidal in Aedes albopictus assessed as mortality rate membrane-fed with compound treated human blood at 10 to 100 microg/mL observed within 7 days relative to control; type: functional, organism-based; details: dose 10-100 µg/ml, time 7.0 day
Anopheles sp. [5] = assay: Insecticidal in Anopheles sp. assessed as percentage survival fed with blood of compound treated human at 250 microg/kg administered once and observed for 3 days relative to control; type: functional, organism-based; details: dose 250.0 µg/kg, time 3.0 day
Anopheles gambiae [6] = assay: Insecticidal in Anopheles gambiae assessed as mean survival fed with blood of compound treated human at 200 microg/kg relative to control; type: functional, organism-based; details: dose 200.0 µg/kg
Anopheles sp. [7] = assay: Insecticidal in Anopheles sp. assessed as mortality rate fed with blood of compound treated human at 200 microg/kg administered once caught on day 1 after mass drug administration observed within 5 days relative to control; type: functional, organism-based; details: dose 200.0 µg/kg, time 5.0 day
Anopheles sp. [8] = assay: Insecticidal in Anopheles sp. assessed as mortality rate fed with blood of compound treated human at 200 microg/kg administered once caught on day 2 after mass drug administration observed within 5 days relative to control; type: functional, organism-based; details: dose 200.0 µg/kg, time 5.0 day
Anopheles gambiae [9] = assay: Insecticidal in Anopheles gambiae assessed as mortality fed with compound treated bovine blood at 600 microg/kg observed for 10 days; type: functional, organism-based; details: dose 600.0 µg/kg, time 10.0 day
Anopheles sp. [10] = assay: Insecticidal in Anopheles sp. assessed as mortality fed with compound treated human blood at 400 microg/kg in the presence of 6 mg/kg diethylcarbamazine citrate observed in 24 hrs relative to control; type: functional, organism-based; details: dose 400.0 µg/kg
Anopheles arabiensis [11] = assay: Insecticidal in Anopheles arabiensis assessed as lethal concentration membrane-fed with compound treated bovine blood; type: functional
Anopheles stephensi [12] = assay: Insecticidal in Anopheles stephensi assessed as lethal concentration membrane-fed with compound treated blood observed after 4 days; type: functional, organism-based; details: time 4.0 day
Anopheles stephensi [13] = assay: Insecticidal in Anopheles stephensi assessed as mortality rate membrane-fed with blood of compound treated mouse at 600 microg/kg observed within 6 days relative to control; type: functional, organism-based; details: dose 600.0 µg/kg, time 6.0 day
Plasmodium vivax [14] = assay: Antimalarial activity against Plasmodium vivax assessed as reduction in infection in Anopheles sp. mosquito midgut fed with blood isolated from compound treated parasite-infected human at 40 ng/ml observed after 7 days relative to control; type: functional, organism-based; details: time 7.0 day
Anopheles sp. [15] = assay: Insecticidal in Anopheles sp. infected with Plasmodium vivax assessed as percentage of survival midgut fed with blood isolated from compound treated parasite-infected human at 40 ng/ml observed after 7 days relative to control; type: functional, organism-based; details: time 7.0 day
Plasmodium vivax [16] = assay: Antimalarial activity against Plasmodium vivax assessed as reduction in […] in Anopheles sp. mosquito fed with blood containing plasma isolated from compound treated human observed after 4 days relative to control; type: functional, organism-based; details: time 4.0 day, dose or concentration not given here
Anopheles sp. [17] = assay: Insecticidal in Anopheles sp. infected with Plasmodium vivax assessed as lethality fed with blood isolated from compound treated human observed for 5 days; type: functional, organism-based; details: time 5.0 day
Anopheles sp. [18] = assay: In vivo Insecticidal in Anopheles sp. assessed as lethality membrane-fed with compound treated human blood at 400 microg/kg per day in presence of combination of 120 mg dihydroartemisinin, 960 mg piperaquine and 30 mg primaquine observed after 7 days; type: functional, organism-based; details: dose 400.0 µg/kg, time 7.0 day
Anopheles gambiae [19] = assay: Insecticidal in Anopheles gambiae assessed as probability of survival per day fed with blood of compound treated human at 150 microg/kg observed for 6 days relative to control; type: functional, organism-based; details: dose 150.0 µg/kg, time 6.0 day
Anopheles sp. [20] = assay: Insecticidal in Anopheles sp. assessed as mortality rate fed with blood of compound treated human at 250 microg/kg administered once and observed for 3 days relative to control; type: functional, organism-based; details: dose 250.0 µg/kg, time 3.0 day
Anopheles sp. [21] = assay: Insecticidal in Anopheles sp. assessed as mortality rate fed with compound treated human blood at 400 microg/kg observed in 48 hrs relative to control; type: functional, organism-based; details: dose 400.0 µg/kg
Anopheles minimus [22] = assay: In vitro Insecticidal in Anopheles minimus assessed as lethality membrane-fed with compound treated human blood at 400 microg/kg per day in presence of combination of 120 mg dihydroartemisinin, 960 mg piperaquine and 30 mg primaquine observed after 7 days; type: functional, organism-based; details: dose 400.0 µg/kg, time 7.0 day
Anopheles minimus [23] = assay: Insecticidal in Anopheles minimus assessed as lethal concentration membrane-fed with compound treated human blood at 200 microg/kg observed for 7 days; type: functional, organism-based; details: dose 200.0 µg/kg, time 7.0 day
Anopheles sp. [24] = assay: Insecticidal in Anopheles sp. infected with Plasmodium falciparum gametocytes assessed as mortality fed with compound treated bovine blood at 200 microg/kg observed within 5.5 days feeding at 15 days post treatment relative to control; type: functional, organism-based; details: dose 200.0 µg/kg, time 5.5 day
Anopheles arabiensis [25] = assay: Insecticidal in Anopheles arabiensis assessed as mortality fed with compound treated bovine blood at 200 microg/kg observed within 2 to 4 days after blood feeding relative to control; type: functional, organism-based; details: dose 200.0 µg/kg, time 2-4 day
Anopheles arabiensis [26] = assay: Insecticidal in Anopheles arabiensis assessed as percentage of mortality in 10 day survivorship fed with compound treated bovine blood at 73 mg observed for 24 weeks relative to control; type: functional, organism-based
Anopheles sp. [27] = assay: Insecticidal in Anopheles sp. infected with Plasmodium falciparum gametocytes assessed as reduction in survival fed with compound treated bovine blood at 200 microg/kg feeding at 7 days after injection relative to control; type: functional, organism-based; details: dose 200.0 µg/kg
Anopheles sp. [28] = assay: Insecticidal in Anopheles sp. infected with Plasmodium falciparum gametocytes assessed as reduction in survival fed with compound treated bovine blood at 200 microg/kg feeding at 15 days after injection relative to control; type: functional, organism-based; details: dose 200.0 µg/kg
Anopheles sp. [29] = assay: Insecticidal in Anopheles sp. infected with Plasmodium falciparum gametocytes assessed as survival fed with compound treated bovine blood at 200 microg/kg feeding at 2 weeks after injection; type: functional, organism-based; details: dose 200.0 µg/kg
Anopheles sp. [30] = assay: Insecticidal in Anopheles sp. infected with Plasmodium falciparum gametocytes assessed as reduction in fecundity fed with compound treated bovine blood at 200 microg/kg feeding at 21 days after injection relative to control; type: functional, organism-based; set-up: scale not given: the % may be the effect or the level left; details: dose 200.0 µg/kg
Anopheles sp. [31] = assay: Insecticidal in Anopheles sp. assessed as mean plasma concentration fed with compound treated pig blood administered as a single dose at 600 microg/kg at 22 day post treatment; type: functional, organism-based; details: dose 600.0 µg/kg
Anopheles sp. [32] = assay: Insecticidal in Anopheles sp. assessed as number of eggs per female fed with compound treated human blood administered as a single dose at 10 microg/ml fed at 4 hrs post treatment; type: functional, organism-based; details: dose 10.0 µg/ml
Anopheles sp. [33] = assay: Insecticidal in Anopheles sp. assessed as egg hatching rate fed with compound treated human blood administered as a single dose at 10 microg/ml fed at 4 hrs post treatment; type: functional, organism-based; details: dose 10.0 µg/ml
Anopheles arabiensis [34] = assay: Insecticidal in Anopheles arabiensis assessed as reduction in fecundity fed with compound treated bovine blood at 200 microg/kg relative to control; type: functional, organism-based; set-up: scale not given: the % may be the effect or the level left; details: dose 200.0 µg/kg
Anopheles arabiensis [35] = assay: Insecticidal in Anopheles arabiensis assessed as mortality observed within 48 hrs after ingestion relative to control; type: functional, organism-based

## IVERMECTIN
Culex pipiens
  LC50: 3.94 ppb
Aedes aegypti [1]
  LC50: 23.4 ppb
Anopheles sp. [2]
  mortality: 90%
Anopheles stephensi [3]
  MLC: 1 ppm
Aedes aegypti [4]
  mortality: 100%
Aedes albopictus
  mortality: 100%
Anopheles sp. [5]
  Survival: 20%
Anopheles gambiae [6]
  Survival: 2.3 days
Anopheles sp. [7]
  mortality: 75%
Anopheles sp. [8]
  mortality: 80%
Anopheles gambiae [9]
  mortality: 90%
Anopheles sp. [10]
  mortality: 70%
Anopheles arabiensis [11]
  LC50: 7.79 ppb
Anopheles stephensi [12]
  LC50: 0.007 µg/mL
Anopheles stephensi [13]
  mortality: 85%
Plasmodium vivax [14]
  inhibition: 61.3%
Anopheles sp. [15]
  Survival: 22%
Plasmodium vivax [16]
  inhibition: 99.9%
Anopheles sp. [17]
  LC5: 18.3 ng/mL
Anopheles sp. [18]
  LC50: 0.00286 µg/mL
Anopheles gambiae [19]
  Survival: > 10%
Anopheles sp. [20]
  mortality: 80%
Anopheles sp. [21]
  mortality: 69%
Anopheles minimus [22]
  LC50: 0.0147 µg/mL
Anopheles minimus [23]
  LC50: 0.0264 µg/mL
Anopheles sp. [24]
  mortality: 100%
Anopheles arabiensis [25]
  mortality: 80%
Anopheles arabiensis [26]
  mortality: 90%
Anopheles sp. [27]
  Survival: 83%
Anopheles sp. [28]
  Survival: 77%
Anopheles sp. [29]
  Survival: 2 days
Anopheles sp. [30]
  Activity: 33%
Anopheles sp. [31]
  Cp: 1.4 ng/mL
Anopheles sp. [32]
  Activity: 22.4
Anopheles sp. [33]
  Activity: 74.8
Anopheles arabiensis [34]
  Activity: 79%
Anopheles arabiensis [35]
  mortality: 95%
